# Source: patent US12006330B2, “Substituted macrocyclic compounds and related methods of treatment” (Alkermes, Inc., priority 2020, dated 2024)
# pEC50: −log10 of the molar value.
# Target: T1, human orexin-2 receptor (OX2R) (Homo sapiens, UniProt O43614)
# T1 construct: expressed in transfected cells
# T1 sequence (O43614 1-444): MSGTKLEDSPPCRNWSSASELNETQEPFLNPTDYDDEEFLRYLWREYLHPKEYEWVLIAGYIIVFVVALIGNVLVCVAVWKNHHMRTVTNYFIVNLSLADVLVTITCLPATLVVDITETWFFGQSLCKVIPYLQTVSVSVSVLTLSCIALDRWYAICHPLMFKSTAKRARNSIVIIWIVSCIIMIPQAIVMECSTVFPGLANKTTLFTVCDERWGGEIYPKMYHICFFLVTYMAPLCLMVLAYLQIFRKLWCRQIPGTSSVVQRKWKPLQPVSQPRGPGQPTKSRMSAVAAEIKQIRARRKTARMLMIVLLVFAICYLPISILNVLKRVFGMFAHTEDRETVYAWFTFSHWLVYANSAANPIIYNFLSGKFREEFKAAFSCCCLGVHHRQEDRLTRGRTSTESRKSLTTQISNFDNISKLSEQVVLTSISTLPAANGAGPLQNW
# Assay: Human OX2R IP1 assay
# Type: cell-based
# Settings: T-Rex CHO cells stably overexpressing human OX2R; IP1 accumulation; 1 hr at 37 degrees C; mean EC50
# Procedure: T-Rex CHO cells stably overexpressing the human orexin-2 receptor (OX2R) were induced overnight with 1 μg/mL of doxycycline in a T225 flask. 24 hours post induction, cells were lifted with accutase and plated into a 384-well proxy plate at 30,000 cells/well. Cells were then treated with different test compounds in 1× stimulation buffer containing 10 mM Hepes, 1 mM CaCl2), 0.5 mM MgCl2, 4.2 mM KCl, 146 mM NaCl, 5.5 mM glucose, and 50 mM LiCl, pH 7.4, for 1 hr at 37 degrees C. Following incubation, the reaction was terminated by the addition of detection mix, which is composed of IP1-d2 and anti-IP1-cryptate diluted in lysis buffer as well as 1× stimulation buffer. The plates were allowed to incubate for 1 hour at room temperature and were then read in the EnVision® multimode plate reader, measuring inositol phosphate levels.
# Cisbio IP1 is a cell-based functional assay quantifying the accumulation of inositol monophosphate (IP), a metabolite released as a result of orexin 2 receptor activation through the phospholipase C-Gq signaling pathway. This is a competitive immunoassay in which the IP1 produced by the cells upon receptor activation competes with the IP1 analog coupled to the d2 fluorophore (acceptor) for binding to an anti-IP1 monoclonal antibody labeled with Eu cryptate (donor). The measured HTRF-FRET based signal is inversely proportional to the IP1 concentration produced.
# The EC50 values reported in Table 2 were obtained according to the human OX2R IP1 assay described above. Data are the mean EC50 values S.E.M. Reference Compound A is methyl (2R,3S)-3-((methylsulfonyl)amino)-2-(((cis-4-phenylcyclohexyl)oxy)methyl)-piperidine-1-carboxylate (Example 5 of PCT publication No. WO2017/135306). Reference Compound B is N-((2S,3S)-1-(2-hydroxy-2-methylpropanoyl)-2-((2,3′,5′-trifluorobiphenyl-3-yl)methyl)pyrrolidin-3-yl)methanesulfonamide (Example 483 of PCT publication No. WO2019/027058).
row,Structure (SMILES),pEC50
1,O=C1COc2ccccc2[C@H]2CC[C@H](CC2)OC[C@H]2[C@@H](NS(=O)(=O)C3CC3)CCCN12 (stereo in doubt) [Compound 1],> 8.00
2,Cc1cccc2c1[C@H]1CC[C@H](CC1)OC[C@H]1[C@@H](NS(=O)(=O)C3CC3)CCCN1C(=O)CO2 (stereo in doubt) [Compound 4],> 8.00
3,C=CS(=O)(=O)N[C@H]1CCCN2C(=O)COc3ccccc3[C@H]3CC[C@H](CC3)OC[C@@H]12 (stereo in doubt) [Compound 5],> 8.00
4,O=C1COc2ccccc2[C@H]2CC[C@H](CC2)OC[C@H]2[C@@H](NS(=O)(=O)CF)CCCN12 (stereo in doubt) [Compound 6],> 8.00
5,CC1(S(=O)(=O)N[C@H]2CCCN3C(=O)COc4ccccc4[C@H]4CC[C@H](CC4)OC[C@@H]23)CC1 (stereo in doubt) [Compound 8],> 8.00
6,O=C1COc2ccccc2[C@H]2CC[C@H](CC2)OC[C@H]2[C@@H](NS(=O)(=O)C(F)(F)F)CCCN12 (stereo in doubt) [Compound 11],> 8.00
7,O=C1COc2ccccc2[C@H]2CC[C@H](CC2)OC[C@H]2[C@@H](NS(=O)(=O)CCO)CCCN12 (stereo in doubt) [Compound 19],> 8.00
8,O=C1COc2ccccc2[C@H]2CC[C@H](CC2)OC[C@H]2[C@@H](NS(=O)(=O)C3CCCC3)CCCN12 (stereo in doubt) [Compound 33],> 8.00
9,CN(C)CCS(=O)(=O)N[C@H]1CCCN2C(=O)COc3ccccc3[C@H]3CC[C@H](CC3)OC[C@@H]12 (stereo in doubt) [Compound 39],> 8.00
10,O=C1COc2ccccc2[C@H]2CC[C@H](CC2)OC[C@H]2[C@@H](NS(=O)(=O)C3CCC3)CCCN12 (stereo in doubt) [Compound 42],> 8.00
11,O=C1COc2ccccc2[C@H]2CC[C@H](CC2)OC[C@H]2[C@@H](NS(=O)(=O)CC3CCC3)CCCN12 (stereo in doubt) [Compound 43],6.00 to 8.00
12,CC(C)(C)S(=O)(=O)N[C@H]1CCCN2C(=O)COc3ccccc3[C@H]3CC[C@H](CC3)OC[C@@H]12 (stereo in doubt) [Compound 44],6.00 to 8.00
13,O=C1COc2ccccc2[C@H]2CC[C@H](CC2)OC[C@H]2[C@@H](NS(=O)(=O)CC3CC3)CCCN12 (stereo in doubt) [Compound 48],> 8.00
14,Cc1cccc2c1OCCN1CCC[C@H](NS(C)(=O)=O)[C@@H]1CO[C@H]1CC[C@@H]2CC1 (stereo in doubt) [Compound 49],< 6.00
15,Cc1ccc2c(c1)OCCN1CCC[C@H](NS(C)(=O)=O)[C@@H]1CO[C@H]1CC[C@@H]2CC1 (stereo in doubt) [Compound 50],< 6.00
16,O=S(=O)(N[C@H]1CCCN2CCOc3ccccc3[C@H]3CC[C@H](CC3)OC[C@@H]12)C1CC1 (stereo in doubt) [Compound 51],6.00 to 8.00
17,CC(C)S(=O)(=O)N[C@H]1CCCN2CCOc3ccccc3[C@H]3CC[C@H](CC3)OC[C@@H]12 (stereo in doubt) [Compound 52],< 6.00
18,CCS(=O)(=O)N[C@H]1CCCN2CCOc3ccccc3[C@H]3CC[C@H](CC3)OC[C@@H]12 (stereo in doubt) [Compound 53],< 6.00
19,Cc1ccc2c(c1)[C@H]1CC[C@H](CC1)OC[C@H]1[C@@H](NS(C)(=O)=O)CCCN1CCO2 (stereo in doubt) [Compound 54],6.00 to 8.00
20,O=S(=O)(CC1CCC1)N[C@H]1CCCN2CCOc3ccccc3[C@H]3CC[C@H](CC3)OC[C@@H]12 (stereo in doubt) [Compound 55],< 6.00
21,CC(C)(C)S(=O)(=O)N[C@H]1CCCN2CCOc3ccccc3[C@H]3CC[C@H](CC3)OC[C@@H]12 (stereo in doubt) [Compound 56],< 6.00
22,O=S(=O)(N[C@H]1CCCN2CCOc3ccccc3[C@H]3CC[C@H](CC3)OC[C@@H]12)C1CCC1 (stereo in doubt) [Compound 57],6.00 to 8.00
23,CC1(S(=O)(=O)N[C@H]2CCCN3CCOc4ccccc4[C@H]4CC[C@H](CC4)OC[C@@H]23)CC1 (stereo in doubt) [Compound 58],6.00 to 8.00
24,O=S(=O)(CC1CC1)N[C@H]1CCCN2CCOc3ccccc3[C@H]3CC[C@H](CC3)OC[C@@H]12 (stereo in doubt) [Compound 59],6.00 to 8.00

# The remaining lines, values ahead:
row,pEC50,Structure (SMILES)
1,> 8.00,Cc1cccc2c1[C@H]1CC[C@H](CC1)OC[C@H]1[C@@H](NS(C)(=O)=O)CCCN1C(=O)CO2 (stereo in doubt) [Compound 2]
2,> 8.00,CC(C)S(=O)(=O)N[C@H]1CCCN2C(=O)COc3ccccc3[C@H]3CC[C@H](CC3)OC[C@@H]12 (stereo in doubt) [Compound 3]
3,> 8.00,O=C1COc2ccccc2[C@H]2CC[C@H](CC2)OC[C@H]2[C@@H](NS(=O)(=O)C(F)F)CCCN12 (stereo in doubt) [Compound 7]
4,> 8.00,Cc1cccc2c1[C@H]1CC[C@H](CC1)OC[C@H]1[C@@H](NS(=O)(=O)C(C)C)CCCN1C(=O)CO2 (stereo in doubt) [Compound 9]
5,> 8.00,Cc1ccnc2c1[C@H]1CC[C@H](CC1)OC[C@H]1[C@@H](NS(=O)(=O)C(C)C)CCCN1C(=O)CO2 (stereo in doubt) [Compound 10]
6,> 8.00,Cc1ccnc2c1[C@H]1CC[C@H](CC1)OC[C@H]1[C@@H](NS(C)(=O)=O)CCCN1C(=O)CO2 (stereo in doubt) [Compound 12]
7,> 8.00,Cc1ccc2c(c1)[C@H]1CC[C@H](CC1)OC[C@H]1[C@@H](NS(=O)(=O)C3CC3)CCCN1C(=O)CO2 (stereo in doubt) [Compound 13]
8,> 8.00,O=C1COc2ncccc2[C@H]2CC[C@H](CC2)OC[C@H]2[C@@H](NS(=O)(=O)C3CC3)CCCN12 (stereo in doubt) [Compound 14]
9,> 8.00,CC(C)S(=O)(=O)N[C@H]1CCCN2C(=O)COc3ncccc3[C@H]3CC[C@H](CC3)OC[C@@H]12 (stereo in doubt) [Compound 15]
10,> 8.00,O=C1COc2ccc(Cl)cc2[C@H]2CC[C@H](CC2)OC[C@H]2[C@@H](NS(=O)(=O)C3CC3)CCCN12 (stereo in doubt) [Compound 16]
11,> 8.00,Cc1ccc2c(c1)[C@H]1CC[C@H](CC1)OC[C@H]1[C@@H](NS(C)(=O)=O)CCCN1C(=O)CO2 (stereo in doubt) [Compound 17]
12,> 8.00,Cc1ccc2c(c1)[C@H]1CC[C@H](CC1)OC[C@H]1[C@@H](NS(=O)(=O)C(C)C)CCCN1C(=O)CO2 (stereo in doubt) [Compound 18]
13,> 8.00,CC(C)S(=O)(=O)N[C@H]1CCCN2C(=O)COc3ccc(Cl)cc3[C@H]3CC[C@H](CC3)OC[C@@H]12 (stereo in doubt) [Compound 26]
14,> 8.00,Cc1c(Cl)ccc2c1[C@H]1CC[C@H](CC1)OC[C@H]1[C@@H](NS(=O)(=O)C(C)C)CCCN1C(=O)CO2 (stereo in doubt) [Compound 28]
15,> 8.00,Cc1c(Cl)ccc2c1[C@H]1CC[C@H](CC1)OC[C@H]1[C@@H](NS(C)(=O)=O)CCCN1C(=O)CO2 (stereo in doubt) [Compound 31]
16,> 8.00,Cc1cnc2c(c1)[C@H]1CC[C@H](CC1)OC[C@H]1[C@@H](NS(=O)(=O)C(C)C)CCCN1C(=O)CO2 (stereo in doubt) [Compound 34]
17,> 8.00,CC(C)S(=O)(=O)N[C@H]1CCCN2C(=O)COc3ncc(Cl)cc3[C@H]3CC[C@H](CC3)OC[C@@H]12 (stereo in doubt) [Compound 35]
18,> 8.00,Cc1cccc2c1OCC(=O)N1CCC[C@H](NS(C)(=O)=O)[C@@H]1CO[C@H]1CC[C@@H]2CC1 (stereo in doubt) [Compound 37]
19,6.00 to 8.00,Cc1ccc2c(c1)OCC(=O)N1CCC[C@H](NS(C)(=O)=O)[C@@H]1CO[C@H]1CC[C@@H]2CC1 (stereo in doubt) [Compound 40]
20,6.00 to 8.00,CS(=O)(=O)N[C@H]1CCCN2C(=O)COc3ccc(C#N)cc3[C@H]3CC[C@H](CC3)OC[C@@H]12 (stereo in doubt) [Compound 46]
21,6.00 to 8.00,CS(=O)(=O)N[C@H]1CCCN2C(=O)COc3cc(C#N)ccc3[C@H]3CC[C@H](CC3)OC[C@@H]12 (stereo in doubt) [Compound 47]
22,> 8.00,Cc1ccnc2c1[C@H]1CC[C@H](CC1)OC[C@H]1[C@@H](NS(=O)(=O)C3CC3)CCCN1C(=O)CO2 (stereo in doubt) [Compound 62]
